This assay has as its target LRRK2 (Homo sapiens (Human), UniProt Q5S007, G2019S). Kind of assay: In Vitro LRRK2 Assay (LRRK2 Ki). In kind it is biochemical. The protocol:
In Vitro LRRK2 Lanthascreen Binding Assay
This assay was used to determine a compound's potency in inhibiting activity of LRRK2 by determining, Kiapp, IC50, or percent inhibition values.
Binding of the Alexa Fluor® “tracer” to a kinase is detected by addition of a Eu-labeled anti-GST antibody.
12 pt curve. […] Stamp 5 ul to assay plate. Final top test concentration 100 uM
In Reaction Buffer, 5 ul of DMSO (3%) was added to total and blank wells and 5 ul of Eu-labeled anti-GST antibody (6 nM) was added to blank wells. Add 5 ul LRRK2 (30 nM)/Eu-labeled anti-GST antibody (6 nM) mix to compound and total wells.
Incubate plates at room temperature for 1 hour on a plate shaker (gentle shaking). Read on Perkin Elmer EnVision reader HTRF protocol
Subtract mean background values from all data points. Calculate % of control for each test value. Plot % of control vs Compound concentration. Calculate Ki Value (xlfit curve fitting-Morrison equation). Results expressed as a Ki in μM. Equation for Ki: Y=V0*(1−((x+Ki*(1+S/Km)+Et)/(2*Et)−(((x+Ki*(1+S/Km)+Et)^2−(4*Et*x))^0.5)/(2*Et)))
This assay was used to determine a compound's potency in inhibiting activity of LRRK2 by determining, Kiapp, IC50, or percent inhibition values. In a polypropylene plate, LRRK2, fluorescently-labeled peptide substrate, ATP and test compound were incubated together. Using a LabChip 3000 (Caliper Life Sciences), after the reaction the substrate was separated by capillary electrophoresis into two populations: phosphorylated and unphosphorylated. The relative amounts of each were quantitated by fluorescence intensity. LRRK2 Ki was determined according to the equation: Y=V0*(1−((x+Ki*(1+S/Km)+Et)/(2*Et)−(((x+Ki*(1+S/Km)+Et)^2−(4*Et*x))^0.5)/(2*Et))).
Ki values in Table 4 and elsewhere herein are shown in μM.
For serial dilutions, 34.6 μl DMSO was added to columns 3-24.
In Complete Reaction Buffer, substrate was diluted to 4 μM. Equal volumes of Complete Reaction Buffer and 4 μM substrate were combined to obtain the blank. Equal volumes of Complete Reaction Buffer and 4 μM substrate were combined and to the combined solution was added 2× final LRRK2 concentration.
To a 50 μl polypropylene plate, 5 μl/well buffer/substrate was added by hand to Blank wells. A Biomek FX was used to start the kinase reaction (“PLK SAR 23 ATP”). The following were added to the appropriate wells:
The plate was incubated for 2 hours in the dark. Biomek FX was used to stop the kinase reaction (“PLK Stop”), and 10 μl/well Stop solution was added to the Assay Plate. Results were read on the LabChip 3000.
The LabChip 3000 was run using the job “LRRK2 IC50” with the following job settings: […]
Chain of LRRK2 (Q5S007 whole entry G2019S): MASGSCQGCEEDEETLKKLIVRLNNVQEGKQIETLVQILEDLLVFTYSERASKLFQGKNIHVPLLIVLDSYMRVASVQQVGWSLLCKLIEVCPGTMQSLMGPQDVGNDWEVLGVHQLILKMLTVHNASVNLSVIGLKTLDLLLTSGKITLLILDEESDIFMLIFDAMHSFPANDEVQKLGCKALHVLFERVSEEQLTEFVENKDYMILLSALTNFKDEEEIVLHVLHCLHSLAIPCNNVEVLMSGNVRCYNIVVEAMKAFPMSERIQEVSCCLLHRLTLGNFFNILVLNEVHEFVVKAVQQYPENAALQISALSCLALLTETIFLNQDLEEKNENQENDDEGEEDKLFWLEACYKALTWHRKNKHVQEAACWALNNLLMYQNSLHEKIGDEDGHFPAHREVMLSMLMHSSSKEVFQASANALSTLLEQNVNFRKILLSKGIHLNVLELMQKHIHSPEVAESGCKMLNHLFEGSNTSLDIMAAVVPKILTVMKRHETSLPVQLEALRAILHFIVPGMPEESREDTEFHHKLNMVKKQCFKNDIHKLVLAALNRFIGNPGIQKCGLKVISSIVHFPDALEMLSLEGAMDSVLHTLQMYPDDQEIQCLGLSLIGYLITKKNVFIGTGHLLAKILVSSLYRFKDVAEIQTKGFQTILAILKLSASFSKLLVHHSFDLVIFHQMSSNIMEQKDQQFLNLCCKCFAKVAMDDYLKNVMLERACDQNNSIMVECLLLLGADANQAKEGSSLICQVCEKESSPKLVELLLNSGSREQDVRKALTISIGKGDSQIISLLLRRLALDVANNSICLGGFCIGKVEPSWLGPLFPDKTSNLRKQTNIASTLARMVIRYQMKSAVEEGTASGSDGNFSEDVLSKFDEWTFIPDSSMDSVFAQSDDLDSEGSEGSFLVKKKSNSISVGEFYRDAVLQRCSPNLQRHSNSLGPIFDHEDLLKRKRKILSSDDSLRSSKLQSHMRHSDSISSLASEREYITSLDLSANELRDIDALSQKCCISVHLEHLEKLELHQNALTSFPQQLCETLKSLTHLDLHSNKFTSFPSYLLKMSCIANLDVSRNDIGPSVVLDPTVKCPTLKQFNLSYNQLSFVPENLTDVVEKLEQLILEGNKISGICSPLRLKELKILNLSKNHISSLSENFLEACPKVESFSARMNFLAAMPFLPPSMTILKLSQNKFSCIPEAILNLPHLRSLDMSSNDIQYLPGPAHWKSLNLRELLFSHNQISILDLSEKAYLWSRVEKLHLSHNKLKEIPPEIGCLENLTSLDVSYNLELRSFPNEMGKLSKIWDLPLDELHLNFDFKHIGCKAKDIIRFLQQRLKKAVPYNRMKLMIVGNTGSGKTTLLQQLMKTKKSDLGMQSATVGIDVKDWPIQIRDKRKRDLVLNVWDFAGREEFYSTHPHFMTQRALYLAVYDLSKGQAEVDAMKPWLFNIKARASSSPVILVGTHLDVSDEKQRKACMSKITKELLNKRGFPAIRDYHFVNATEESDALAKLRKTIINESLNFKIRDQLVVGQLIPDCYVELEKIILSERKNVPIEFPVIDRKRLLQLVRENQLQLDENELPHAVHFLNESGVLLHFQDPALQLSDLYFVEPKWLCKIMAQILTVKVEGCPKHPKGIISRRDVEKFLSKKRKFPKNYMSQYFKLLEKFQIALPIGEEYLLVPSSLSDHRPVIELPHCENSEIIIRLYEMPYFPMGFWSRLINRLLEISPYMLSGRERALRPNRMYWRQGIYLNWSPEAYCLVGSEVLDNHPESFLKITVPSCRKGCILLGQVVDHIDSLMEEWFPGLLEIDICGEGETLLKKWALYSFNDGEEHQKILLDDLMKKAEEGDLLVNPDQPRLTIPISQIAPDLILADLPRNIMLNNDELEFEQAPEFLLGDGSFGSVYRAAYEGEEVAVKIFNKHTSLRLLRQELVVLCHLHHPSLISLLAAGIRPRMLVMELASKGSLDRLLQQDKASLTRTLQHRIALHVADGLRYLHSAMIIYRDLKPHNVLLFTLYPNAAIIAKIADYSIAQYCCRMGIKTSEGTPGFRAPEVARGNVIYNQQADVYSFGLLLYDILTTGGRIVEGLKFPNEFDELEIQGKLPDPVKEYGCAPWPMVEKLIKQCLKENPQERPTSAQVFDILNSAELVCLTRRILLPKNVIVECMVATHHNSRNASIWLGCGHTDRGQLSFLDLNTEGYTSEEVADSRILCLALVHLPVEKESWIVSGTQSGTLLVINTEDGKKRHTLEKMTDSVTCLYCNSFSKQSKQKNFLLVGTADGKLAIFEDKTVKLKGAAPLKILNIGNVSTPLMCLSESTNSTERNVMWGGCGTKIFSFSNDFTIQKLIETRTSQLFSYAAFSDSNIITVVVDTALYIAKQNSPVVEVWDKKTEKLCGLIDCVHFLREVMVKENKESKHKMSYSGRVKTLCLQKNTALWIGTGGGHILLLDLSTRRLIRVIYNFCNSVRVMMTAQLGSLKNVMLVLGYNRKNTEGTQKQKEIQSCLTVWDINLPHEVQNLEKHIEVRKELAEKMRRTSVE
`CNc1nc(Nc2cn(C3CCOC[C@H]3F)nc2C)ncc1C(F)(F)F` (stereo in doubt) [Example 37, N2-(1-(3-fluorotetrahydro-2H-pyran-4-yl)-3-methyl-1H-pyrazol-4-yl)-N4-methyl-5-(trifluoromethyl)pyrimidine-2,4-diamine]: the affinity, expressed as Ki, was 0.6 nM.

`CNc1nc(Nc2cnn(C3CCOC[C@H]3F)c2C)ncc1C(F)(F)F` (stereo in doubt) [Example 39, N2-(1-(3-fluorotetrahydro-2H-pyran-4-yl)-5-methyl-1H-pyrazol-4-yl)-N4-methyl-5-(trifluoromethyl)pyrimidine-2,4-diamine] yielded a Ki of 2.8 nM. Next, `Cc1c(Nc2ncc(C#N)c(NC3CC3)n2)cnn1C1CCOCC1` [Example 3, 4-(cyclopropylamino)-2-((5-methyl-1-(tetrahydro-2H-pyran-4-yl)-1H-pyrazol-4-yl)amino)pyrimidine-5-carbonitrile]: 7.3 nM; `CCNc1nc(Nc2cnn(C3CCOCC3)c2Cl)ncc1C#N` [Example 7, 2-((5-chloro-1-(tetrahydro-2H-pyran-4-yl)-1H-pyrazol-4-yl)amino)-4-(ethylamino)pyrimidine-5-carbonitrile]: 6.2 nM; `CNc1nc(Nc2cn(C(C)(C)CO)nc2C)ncc1C(F)(F)F` [Example 9, 2-methyl-2-(3-methyl-4-((4-(methylamino)-5-(trifluoromethyl)pyrimidin-2-yl)amino)-1H-pyrazol-1-yl)propan-1-ol]: 4.8 nM. Next, `CNc1nc(Nc2cnn(CC3(O)CC3)c2Cl)ncc1C(F)(F)F` [Example 10, 1-((5-chloro-4-((4-(methylamino)-5-(trifluoromethyl)pyrimidin-2-yl)amino)-1H-pyrazol-1-yl)methyl)cyclopropanol]: 5 nM; `CNc1nc(Nc2cn(C3(C)COC3)nc2C)ncc1C(F)(F)F` [Example 15, N4-methyl-N2-(3-methyl-1-(3-methyloxetan-3-yl)-1H-pyrazol-4-yl)-5-(trifluoromethyl)pyrimidine-2,4-diamine]: 4.8 nM; `CNc1nc(Nc2cn(C(C)(C)c3nc(C)cn3C)nc2C)ncc1C(F)(F)F` [Example 16, N2-(1-(2-(1,4-dimethyl-1H-imidazol-2-yl)propan-2-yl)-3-methyl-1H-pyrazol-4-yl)-N4-methyl-5-(trifluoromethyl)pyrimidine-2,4-diamine]: 140 nM.

Consider `CNc1nc(Nc2cn(C(C)(C)c3ncc(C)o3)nc2C)ncc1C(F)(F)F` [Example 18, N4-methyl-N2-(3-methyl-1-(2-(5-methyloxazol-2-yl)propan-2-yl)-1H-pyrazol-4-yl)-5-(trifluoromethyl)pyrimidine-2,4-diamine], for which the affinity, expressed as Ki, was 3.82 nM. In turn, `CCNc1nc(Nc2cn(C3(C)COC3)nc2C)ncc1C(F)(F)F` [Example 19, N4-ethyl-N2-(3-methyl-1-(3-methyloxetan-3-yl)-1H-pyrazol-4-yl)-5-(trifluoromethyl)pyrimidine-2,4-diamine] came in with a Ki of 0.975 nM. Next, `CCNc1nc(Nc2cn(S(=O)(=O)CCOC)nc2C)ncc1C(F)(F)F` [Example 20, N4-ethyl-N2-(1-((2-methoxyethyl)sulfonyl)-3-methyl-1H-pyrazol-4-yl)-5-(trifluoromethyl)pyrimidine-2,4-diamine]: 0.96 nM; `CNc1nc(Nc2cn(S(=O)(=O)CCOC)nc2C)ncc1C(F)(F)F` [Example 21, N2-(1-((2-methoxyethyl)sulfonyl)-3-methyl-1H-pyrazol-4-yl)-N4-methyl-5-(trifluoromethyl)pyrimidine-2,4-diamine]: 1.85 nM; `CNc1nc(Nc2cnn(S(=O)(=O)CCOC)c2C)ncc1C(F)(F)F` [Example 22, N2-(1-((2-methoxyethyl)sulfonyl)-5-methyl-1H-pyrazol-4-yl)-N4-methyl-5-(trifluoromethyl)pyrimidine-2,4-diamine]: 6.46 nM.

Usually Ki stands for a measure of affinity in units of concentration, obtained from inhibition or displacement. The low end stands for higher affinity, the high end for lower affinity.
